Activity calls are given as the source filed them.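 The calls were made as follows: active = mean IC50 for reducing PEG3 promoter reporter signal at or below a set limit, with IC50 above the limit in both counter screens; inactive = the rest, including counter screen hits.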
Assays:
Experiment in all cases: Peg3 promoter luciferase inhibitors, potency, dose response, cell-based, HeLa, CREF/GAPDH counter-screen panel (AID 624167)
PEG-3 [1] = biological target: PEG-3 (UniProt Q6IN02); conditions: HeLa PEG-Prom luciferase reporter, overnight, CREF/GAPDH counter-screens, mean of runs
Sequence of PEG-3 (UniProt Q6IN02) (Q6IN02 whole entry, looked up): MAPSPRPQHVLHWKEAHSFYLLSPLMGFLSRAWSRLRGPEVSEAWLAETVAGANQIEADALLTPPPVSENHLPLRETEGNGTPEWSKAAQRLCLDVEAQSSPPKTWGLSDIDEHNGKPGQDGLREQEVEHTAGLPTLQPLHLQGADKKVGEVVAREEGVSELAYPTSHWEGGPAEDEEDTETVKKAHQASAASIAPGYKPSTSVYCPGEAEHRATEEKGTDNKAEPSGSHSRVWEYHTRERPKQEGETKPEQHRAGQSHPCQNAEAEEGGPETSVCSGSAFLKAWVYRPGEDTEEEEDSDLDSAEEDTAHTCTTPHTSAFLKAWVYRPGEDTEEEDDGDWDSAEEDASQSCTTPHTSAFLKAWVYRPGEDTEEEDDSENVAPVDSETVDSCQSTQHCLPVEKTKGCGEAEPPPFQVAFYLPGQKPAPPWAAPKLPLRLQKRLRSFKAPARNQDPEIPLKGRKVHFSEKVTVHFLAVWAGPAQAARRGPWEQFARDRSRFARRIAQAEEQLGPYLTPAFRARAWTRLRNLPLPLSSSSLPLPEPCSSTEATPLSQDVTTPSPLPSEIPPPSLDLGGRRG

Rat fibroblasts (CREF) = conditions: CREF/GAPDH counter-screens
PEG-3 [2] = conditions: HeLa PEG-Prom luciferase reporter, overnight, CREF/GAPDH counter-screens
[3] = run 1, dose range 1, individual replicate IC50 per panel
[4] = run 2, dose range 1, individual replicate IC50 per panel

Row | IC50 (PEG-3 [1]) | Structure (SMILES) | IC50 (Rat fibroblasts (CREF); mean of runs) [nM] | IC50 (Rat fibroblasts (CREF); [3]) [nM] | IC50 (Rat fibroblasts (CREF); [4]) [nM] | IC50 (PEG-3 [2]; [3]) [nM] | IC50 (PEG-3 [2]; [4]) [nM]
1 | 2220 nM | O=C(/C=C/c1ccccc1)Nc1cccc(C(=O)O)c1 | 5310 | 4020 | 6600 | 1790 | 2640
2 | 10500 nM | CN[C@H]1C[C@H]2c3[nH]c4ccc(-c5ccc(OC)cc5)cc4c3CCN2C(=O)[C@H]1[C@H](C)O | 16100 | 16900 | 15300 | 12500 | 8390
3 | 7740 nM | COc1cccc(NC(=O)c2nc(S(C)(=O)=O)ncc2Cl)c1 | 9290 | 10200 | 8360 | 8840 | 6640
4 | 4150 nM | CCOc1ccc(-c2ccc(SC)nn2)cc1 | 473 | 313 | 632 | 2870 | 5430
5 | 1540 nM | Cc1nc(-c2ccc(NC(=O)c3ccco3)cc2)cs1 | 433 | 430 | 436 | 1390 | 1690
6 | 5140 nM | Cc1cc(S(=O)(=O)c2ccc(Cl)cc2)nc(S(=O)(=O)c2ccc(Cl)cc2)c1C#N | 13100 | 10900 | 15300 | 6140 | 4140
7 | 552 nM | COc1ccc(-c2nc(-c3ccccn3)no2)cc1 | 529 | 472 | 586 | 765 | 338
8 | 957 nM | CCN1C=CC(=C2C(=O)c3ccccc3C2=O)C=C1 | 850 | 947 | 753 | 834 | 1080
9 | 818 nM | c1ccc(-c2noc(-c3ccc4c(c3)OCO4)n2)nc1 | 694 | 309 | 1080 | 622 | 1010
10 | 2130 nM | O=C(Nc1ccc(N2CCOCC2)cc1)c1cnsn1 | 2590 | 2510 | 2680 | 2800 | 1470
11 | 3460 nM | CCOc1ccc(NC(=O)c2ccccn2)cc1 | 1280 | 921 | 1650 | 2890 | 4040
12 | inactive | CCOc1ccc2nc(NC(=O)c3ccccn3)sc2c1 | 3500 | 2810 | 4180 | 4390 | > 100000
13 | 10800 nM | COCCn1c(C)cc(C(=O)COC(=O)c2cccc(O)c2)c1C | 611 | 468 | 755 | 16100 | 5480
14 | 6810 nM | C/C(=N/NC(=O)c1cc(C2CC2)[nH]n1)c1cccs1 | 3840 | 3850 | 3830 | 5930 | 7690
15 | 1750 nM | C/C(=N\NC(=O)c1n[nH]c2c1CCC2)c1cccs1 | 2490 | 2490 | 2490 | 1170 | 2330
16 | 764 nM | c1cc2c(cc1C1=NNC(=NC3CC3)SC1)OCCO2 | 4720 | 1390 | 8060 | 657 | 872
17 | 4810 nM | COC(=O)c1nn(-c2ccc3c(c2)CCN3C(C)=O)cc1O | 4480 | 5010 | 3950 | 3930 | 5690
18 | 6120 nM | CN(C)c1ccc(/C=C/c2nc3ccccc3s2)cc1 | 1560 | 1170 | 1940 | 4730 | 7510
19 | 1000 nM | Brc1ccc(N/N=C(/N=Nc2nn[nH]n2)c2ccccc2)cc1 | 10200 | 10000 | 10400 | 760 | 1240
20 | inactive | Cc1ccc2oc(/N=C(\N)NC(=O)C(C)(C)C)nc2c1 | 2990 | 412 | 5570 | 725 | > 100000
21 | 7650 nM | CC(=O)Nc1ccc(NC(=O)c2nc(S(=O)(=O)Cc3cccc(C)c3)ncc2Cl)cc1 | 6670 | 4500 | 8850 | 9470 | 5840
22 | 2020 nM | COc1ccc(C(=O)O/N=C(\N)c2ccccn2)cc1 | 1620 | 1320 | 1930 | 3110 | 926
23 | 3100 nM | NC1=C(Br)C(=O)c2ncccc2C1=O | 2200 | 2190 | 2200 | 3310 | 2900
24 | 665 nM | Cc1ccc(C(=O)Nc2cc3ccccc3oc2=O)cc1 | 1660 | 409 | 2900 | 327 | 1000

— PubChem BioAssay AID624167 (Sanford-Burnham Center for Chemical Genomics, 2012)
